The values that follow come from article PMC12040169 (PLOS Biology, 2025).

A short description of this data set: in vitro. The conditions noted are these: human, hela cells, % viability.

Structures are written as SMILES.

Consider `COC(=O)c1ccc(S(=O)(=O)C(F)(F)F)cc1N` [CBK018172], for which the viability at 28.5 h, 10 µM was found to be 114%.

`Cc1sc2ncn(CC3(O)CCCNC3)c(=O)c2c1-c1ccc(F)cc1` (stereo not drawn) [CBK307346]: the viability at 28.5 h, 10 µM amounted to 96%. For `O=C1NC(=O)c2cc(S(=O)(=O)NCCCO)cc3cccc1c23` [CBK267602], the viability at 28.5 h, 10 µM amounted to 110%. The result for `c1ccc(CCN2CCN(CCC(c3ccccc3)c3ccccc3)CC2)cc1` [CBK126432] reads 85.4%; that for `CC(C)(C)C(=O)N1CCC(n2nc(-c3cccs3)ccc2=O)CC1` [CBK284182], 92.9%; that for `O=C1CCC(=O)N1CCOc1nccnc1OC1CCN(Cc2ccc(Cl)cc2)CC1` [CBK084338], 108%. Take `CN(CC(N)=O)C(=O)CCn1c(=O)oc2cc(Cl)ccc21` [CBK305757]: the viability at 28.5 h, 10 µM was 94.9%. On to `O=C1CNC(=O)C2(C/C=C/C[C@H]3COCC[C@H]3N1)CCN(Cc1cccc3[nH]ccc13)CC2` [CBK292073], for which the viability at 28.5 h, 10 µM came out at 110%. As for `CCOc1ccc2nc(NS(=O)(=O)c3ccc4c5c(cccc35)C(=O)N4)sc2c1` [CBK262162], the viability at 28.5 h, 10 µM came to 100%. Turning to `c1ccc(CCn2c3ccccc3c3nnc(SCc4ccc5nonc5c4)nc32)cc1` [CBK267516], the viability at 28.5 h, 10 µM turned out to be 97.4%. The result for `Cc1cnc(C)c(N2CCN(C(=O)NCCSc3nncn3C)CC2)n1` [CBK306531] reads 92.9%; that for `O=S(=O)(Nc1ccc2[nH]ccc2c1)c1ccc(Br)cc1F` [CBK153510], 88.9%. With `Oc1ccccc1Nc1nc(NC2CCCC2)c2ccccc2n1` [CBK268402C], the viability at 28.5 h, 10 µM was 84.8%.

As for `N#CC(/N=C/c1ccc(C#Cc2ccccc2)cc1)=C(C#N)/N=C/c1ccc(C#Cc2ccccc2)cc1` [CBK262066], the viability at 28.5 h, 10 µM turned out to be 88%. In the case of `Cc1nc(C)n(C(C)CNC(=O)Cc2coc3cc(C)c(C)cc23)n1` (stereo not drawn) [CBK282577], the viability at 28.5 h, 10 µM turned out to be 106%. Then `CCc1c(C)nc2ccc(NC(C)=O)cc2c1SCCC(=O)O` [CBK159465T], with 98.7%; and `Cc1ccc(C(=O)O)cc1NC(=O)c1ncn(-c2ccccc2)n1` [CBK269181], with 114%. The result for `COCC(=O)Nc1c[nH]nc1C1CCCN(c2cccc(F)c2C#N)C1` (stereo not drawn) [CBK305395] reads 86%; that for `CNc1cc(N2CCN(S(=O)(=O)c3ccc(C)cc3)CC2)ccc1[N+](=O)[O-]` [CBK266005], 104%; that for `COCC(=O)N1CCC(NC(=O)N(CCc2ccccc2)Cc2ccccc2)CC1` [CBK174877], 102%. `O=C(Nc1ccccc1C(F)(F)F)NC1CC2CCCC(C1)N2C1CC1` (stereo not drawn) [CBK143578]: the viability at 28.5 h, 10 µM was determined as 103%. `O=C(O)c1ccccc1N1C(=O)c2ccc(Oc3ccc(Oc4ccc5c(c4)C(=O)N(c4ccccc4C(=O)O)C5=O)cc3)cc2C1=O` [CBK261186]: the viability at 28.5 h, 10 µM worked out at 88.6%. Then `O=c1/c(=C/c2ccncc2)sc2n1CN(c1cccc(F)c1)CN=2` [CBK264340], with 99.2%; and `O=C(O)C1CCCN(C(=O)NCc2c(Cl)cccc2Cl)C1` (stereo not drawn) [CBK161362], with 90%.

Take `O=C(CSc1nc(O)cc(O)n1)Nc1ccc(I)cc1` [CBK269467]: the viability at 28.5 h, 10 µM was found to be 103%. As to `CCC1CCCCN1C(=O)c1cccc(C(=O)OC)c1` (stereo not drawn) [CBK083195], the viability at 28.5 h, 10 µM came to 109%. Then `O=C(O)Cn1nnnc1CN1CCc2ccccc2C1` [CBK287097], with 94.3%; and `CCN(CC)C(=O)Cn1nc(C)n2c(cc3oc(C)cc32)c1=O` [CBK283609], with 93.7%. Then `O=C(CN1C(=O)N2CCCN=C2c2ccccc21)NCc1ccccc1` [CBK284403], with 84.8%; and `O=C(CNC(=O)c1ccccc1)OCC(=O)c1ccc(Cl)c(Cl)c1` [CBK261611], with 93.9%; and `CCN1CCN(Cc2ccccc2[N+](=O)[O-])CC1` [CBK261561], with 109%. As to `CCC(O)CNc1ccc(C(=O)N2CCC(N3CCOCC3)CC2)cn1` (stereo not drawn) [CBK306865], the viability at 28.5 h, 10 µM worked out at 95.1%. As to `NC(=O)C1(Cc2cccc(-c3cccs3)c2)CCN(C(=O)Cc2cccc(F)c2)CC1` [CBK285783], the viability at 28.5 h, 10 µM was 98%. For `COc1ccc(S(=O)(=O)N2CCN(Cc3ccc4c(c3)OCO4)CC2)c(Cl)c1Cl` [CBK074433], the viability at 28.5 h, 10 µM came to 102%. Then `O=C(COc1ccccc1[N+](=O)[O-])Nc1cnc(-c2cccc(C(F)(F)F)c2)c(-c2ccco2)n1` [CBK036899], with 86.3%; and `COc1cccc(CC(=O)Nc2ccc3c(C)cc(C)nc3n2)c1` [CBK287992], with 74.1%; and `O=C1CC2(CCN(C(=O)C3CCCCC3)CC2)Oc2ccc(F)cc21` [CBK282863], with 74.6%. The result for `CC(C)c1ccc(S(=O)(=O)Nc2ccc(O)c(Sc3nc[nH]n3)c2)cc1` [CBK266861] reads 90.8%; that for `Cc1cc(C(=O)Nc2cccc3cc[nH]c23)ccc1Cl` [CBK160078], 96.2%; that for `FC(F)(F)c1ccnc(Sc2cccc(Cl)c2)n1` [CBK115247], 98.5%. Then `Cc1nc(CNc2ccc3nnc(C(F)(F)F)n3n2)cs1` [CBK305674], with 91.6%; and `CCOc1cc(OCC)cc(C(=O)N2CCC3(CC2)CC(=O)c2c(OC)cccc2O3)c1` [CBK168012], with 108%. For `COc1ccc(NC(=O)c2ccc(N(C)Cc3ccccc3)c([N+](=O)[O-])c2)cc1` [CBK268094], the viability at 28.5 h, 10 µM turned out to be 86.4%. Then `CS(=O)(=O)N1CC2(CCN(Cc3cccnc3)CC2)c2ccccc21` [CBK084006], with 98.1%; and `CCN(CC(=O)NCc1cccnc1)S(=O)(=O)c1ccc2ccccc2c1` [CBK300514], with 108%; and `CN1CCC(NC(=O)c2cccc(OCC(=O)N3CCCCC3)c2)C1=O` (stereo not drawn) [CBK307281], with 78.3%. Consider `O=C(O)/C=C\C(=O)Nc1ccc(Oc2ccccc2)cc1` [CBK261216], for which the viability at 28.5 h, 10 µM was determined as 102%.

For the compound `O=C1NCCNC(=O)C2(C/C=C/COc3ccccc31)CCCNC2` (stereo not drawn) [CBK292171], the viability at 28.5 h, 10 µM is 115%. Turning to `Cc1cc(NC(=O)C(C)N(C)CCOc2ccccc2Cl)no1` (stereo not drawn) [CBK304466], the viability at 28.5 h, 10 µM worked out at 107%. Regarding `Cn1nc(C(=O)NCc2ccccc2)cc1C(=O)NCc1ccccc1` [CBK270004], the viability at 28.5 h, 10 µM turned out to be 92%. In the case of `CC(=O)N1CCN(CC(O)Cn2c3ccccc3c3ccccc32)CC1` (stereo not drawn) [CBK305588], the viability at 28.5 h, 10 µM came out at 102%. As for `CCCCCCc1ccc(NS(=O)(=O)c2cc3c(NCCN(C)C)nccc3s2)cc1` [CBK038253C], the viability at 28.5 h, 10 µM was 100%. For the compound `O=C(Cc1ccccc1)Nc1ccccc1C(=O)NCc1cccnc1` [CBK269228], the viability at 28.5 h, 10 µM amounted to 96.1%. The result for `Cn1cnnc1C1CCCN(C(=O)NCc2cccc(F)c2)C1` (stereo not drawn) [CBK305792] reads 101%.

For `c1cnc(NCc2cc3n(n2)CCN(CC2CCCCC2)C3)cn1` [CBK307592], the viability at 28.5 h, 10 µM came out at 80%. On to `COCCCn1c(C)c(C)n2c3c(=O)n(CCN4CCCCC4)c(=O)n(C)c3nc12` [CBK269762], for which the viability at 28.5 h, 10 µM came out at 102%. In the case of `COc1ccc([N+](=O)[O-])cc1NC(=O)c1nc(C)c(C)nc1C(=O)O` [CBK103387], the viability at 28.5 h, 10 µM was 82.6%. In the case of `CCc1nc2ccccc2n1CC(=O)N(Cc1cccnc1)C1CC1` [CBK304064], the viability at 28.5 h, 10 µM was 107%. Regarding `Cn1c(=O)c2c(nc(NCCN)n2C)n(C)c1=O` [CBK268680], the viability at 28.5 h, 10 µM was 107%. Take `O=C(Nc1ccc(-c2nc3ccccc3o2)c(O)c1)c1ccc(-c2ccc([N+](=O)[O-])cc2)o1` [CBK263416]: the viability at 28.5 h, 10 µM is 108%. As for `O=C(NCCN1CCCC1)c1ccc(N2CCN(C(=O)c3ccccc3C(F)(F)F)CC2)nn1` [CBK153217], the viability at 28.5 h, 10 µM was found to be 105%. Then `CCOCCCNC(=O)C1CCN(c2cccc(F)c2C#N)CC1` [CBK306341], with 91.9%; and `O=C1c2ccccc2NC(c2ccc(O)cc2)N1/N=C/c1ccc(O)cc1` (stereo not drawn) [CBK262985], with 84.5%; and `Cc1nc2c(c(CCC(=O)O)n1)CCCC2` [CBK023157], with 98.4%. The result for `CCCN(Cc1cccs1)C1Cc2cc(OC)c(OC)cc2C1` [CBK017567C] reads 96.8%; that for `Cc1ccc(NC2=NC3(N=C(N)N2)C(=O)N(C)c2ccccc23)cc1` (stereo not drawn) [CBK270157], 84.9%. With `O=C(c1cc(-c2ccc(Cl)cc2)[nH]n1)N1CCN(c2ncccn2)CC1` [CBK116551], the viability at 28.5 h, 10 µM amounted to 93%.

For `c1ccc(OCCN2CCC3(C2)NCCc2[nH]ccc23)cc1` (stereo not drawn) [CBK084595T], the viability at 28.5 h, 10 µM was determined as 90.9%. On to `CC(=O)CSc1nnc(-c2ccc(F)cc2)o1` [CBK068327], for which the viability at 28.5 h, 10 µM was 110%.

`O=C(c1ccccc1)c1cc[n+](CCC[n+]2ccc(C(=O)c3ccccc3)cc2)cc1` [CBK278270B]: the viability at 28.5 h, 10 µM was found to be 91.5%. Then `Cc1ccc(Cl)c(OC(C)C(=O)NCC2(N3CCOCC3)CCSC2)c1` (stereo not drawn) [CBK305681], with 110%; and `Nc1ncnc2[nH]c(SCc3nc4ccc(I)cc4c(=O)n3-c3ccccc3)nc12` [CBK267174], with 96.2%; and `CN(C)C(=O)c1cc2cc(NC(=O)CC3COCCN3)ccc2s1` (stereo not drawn) [CBK306710], with 105%. The result for `O=C(NCCNc1cnccn1)c1cc(Br)ccc1F` [CBK253480] reads 110%; that for `CCn1nc2c3ccccc3nc(C3CC3)n2c1=O` [CBK284008], 68.8%. Regarding `COc1ccc(CN2CC[C@@H]3[C@H](C2)[C@@H](c2ccc(F)cc2)CN3C(=O)c2ccccc2)cc1` [CBK286290], the viability at 28.5 h, 10 µM came to 92.3%. In the case of `CC(Sc1ccc(Cl)cc1)C(=O)NCCN1CCOCC1` (stereo not drawn) [CBK269316], the viability at 28.5 h, 10 µM amounted to 111%.

Turning to `Cc1ccc(C(=O)Nc2cc(C)nn2C)c(N2CCOCC2)n1` [CBK106221], the viability at 28.5 h, 10 µM worked out at 104%.

Broadly, the viability is a read-out of living cells in per cent, often relative to untreated cells.
